One cell line from the supplement of paper PMC10307832 can be followed below.

Common to all, as to experiment: relative viability (nuclei count vs DMSO), 5 days (fraction); higher = more cells survive
Compound in the assay “Ibrutinib + Alpelisib”: C=CC(=O)N1CCC[C@@H](n2nc(-c3ccc(Oc4ccccc4)cc3)c3c(N)ncnc32)C1 [Ibrutinib] + Cc1nc(NC(=O)N2CCC[C@H]2C(N)=O)sc1-c1ccnc(C(C)(C)C(F)(F)F)c1 [Alpelisib] (partner 2 µM)
The procedure, abridged:
(§1)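 Cells from lung cancer lines were seeded into 1536-well plates and, one day later, dosed by pin tool. Treatments were either a single drug or a fixed dose of an anchor drug with five library-drug doses (not always all listed) in √10 steps. After 5 days, nuclei were stained in a one-step fixation (final 0.05% Triton X-100, 1% formaldehyde, 1 ug/ml Hoechst) and counted on 4× images, and relative viability is the treated-to-vehicle nuclei ratio, as the median of duplicate plates.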

Compound in the assay “Ibrutinib + Palbociclib”: C=CC(=O)N1CCC[C@@H](n2nc(-c3ccc(Oc4ccccc4)cc3)c3c(N)ncnc32)C1 [Ibrutinib] + CC(=O)c1c(C)c2cnc(Nc3ccc(N4CCNCC4)cn3)nc2n(C2CCCC2)c1=O [Palbociclib] (partner 0.5 µM)
In short, it runs like this:
as §1

Compound in the assay “BMX-IN-1 + Pictilisib”: C=CC(=O)Nc1cc(-n2c(=O)ccc3cnc4ccc(-c5ccc(NS(C)(=O)=O)cc5)cc4c32)ccc1C [BMX-IN-1] + CS(=O)(=O)N1CCN(Cc2cc3nc(-c4cccc5[nH]ncc45)nc(N4CCOCC4)c3s2)CC1 [Pictilisib] (partner 1 µM)
In short, it runs like this: as §1

Compound in the assay “Ibrutinib + Navitoclax”: C=CC(=O)N1CCC[C@@H](n2nc(-c3ccc(Oc4ccccc4)cc3)c3c(N)ncnc32)C1 [Ibrutinib] + CC1(C)CCC(c2ccc(Cl)cc2)=C(CN2CCN(c3ccc(C(=O)NS(=O)(=O)c4ccc(N[C@H](CCN5CCOCC5)CSc5ccccc5)c(S(=O)(=O)C(F)(F)F)c4)cc3)CC2)C1 [Navitoclax] (partner 0.5 µM)
In short, it runs like this:
as §1

SK-MES-1: the relative viability in the assay with Ibrutinib + Alpelisib (first compound 0.005 µM) is 0.441; with Ibrutinib + Alpelisib (first compound 0.01581 µM), 0.842; with Ibrutinib + Alpelisib (first compound 0.05 µM) it was 0.599; with Ibrutinib + Alpelisib (first compound 0.1581 µM), 1; with Ibrutinib + Alpelisib (first compound 0.5 µM) it was 0.379; in the assay with Ibrutinib + Palbociclib (first compound 0.005 µM) it was 0.337. Also, the relative viability with Ibrutinib + Palbociclib (first compound 0.01581 µM) worked out at 0.324; in the assay with Ibrutinib + Palbociclib (first compound 0.05 µM), 0.382; with Ibrutinib + Palbociclib (first compound 0.1581 µM), 0.366; with Ibrutinib + Palbociclib (first compound 0.5 µM), 0.245; with BMX-IN-1 + Pictilisib (first compound 0.02 µM), 0.345; with BMX-IN-1 + Pictilisib (first compound 0.2 µM) it was 0.383. Moreover, the relative viability in the assay with BMX-IN-1 + Pictilisib (first compound 0.6325 µM) worked out at 0.414; in the assay with BMX-IN-1 + Pictilisib (first compound 2 µM), 0.344; with Ibrutinib + Navitoclax (first compound 0.005 µM) it was 1.19; in the assay with Ibrutinib + Navitoclax (first compound 0.01581 µM), 1.2; with Ibrutinib + Navitoclax (first compound 0.05 µM), 1.34; with Ibrutinib + Navitoclax (first compound 0.1581 µM), 1.32. Further, the relative viability with Ibrutinib + Navitoclax (first compound 0.5 µM) stood at 0.723.
